Like-named read-outs stand apart in the source and are kept apart here. One block for each compound: values may come before it.
Key:
[1] = molecular target: T1, Ld6PGD (Leishmania donovani, UniProt Q18L02); assay: Dose-response of gold(I)-based compounds against recombinant Ld6PGD (NADPH fluorescence); format: biochemical
Description: (§1) Dose–response curves of gold(I)-based compounds against Ld6PGD were determined in 96-well plates using a Tecan Infinite M200 plate reader (Tecan, Maennedorf, Switzerland). An amount of 10 mM of each compound was dissolved in 100% DMSO and afterwards diluted in assay buffer to the required concentrations (highest final compound concentration of 100 μM). The DMSO tolerance of the enzymes was determined in advance by incubating the enzymes with up to 6% DMSO and determining their activity. Up to this concentration, no impairment of the enzymes’ catalytic activity was observed. In addition, a DMSO control was included in each measurement.
Different compound concentrations were added to one volume of enzyme mix (final concentrations: 50 mM Tris (pH 7.5), 0.005% Tween 20, 1 mg∙mL^−1 BSA, 0.7 nM Ld6PGD/0.7 nM Pf6PGD/0.9 nM Hs6PGD) and incubated for ten minutes. To start the reaction, one volume substrate mix (final concentrations: 50 mM Tris (pH 7.5), 0.005% Tween 20, 1 mg∙mL^−1 BSA, 3.3 mM MgCl2, 25/20/25 µM 6PG, 20 µM NADP^+ for Ld6PGD, Pf6PGD and Hs6PGD) was added to the wells. To increase the sensitivity of the assay, the increase of NADPH was monitored by measuring the fluorescence of NADPH at excitation 340 nm/emission 460 nm (ex340/em460). The substrate mix without 6PG served as a positive control (100% inhibition) and without the compound, but with DMSO as a negative control (100% activity). The assay contained both substrates either in saturation or at concentrations close to KM to facilitate the identification of competitive inhibitors. The reaction rate was calculated by dividing the relative fluorescence units (RFU) by time, and only a linear increase in absorbance/fluorescence was considered. IC50 values were calculated using GraphPad Prism 9.0 software and Microsoft Excel.

[2] = molecular target: Pf6PGD (Plasmodium falciparum, UniProt Q8IKT2); assay: Dose-response against recombinant Pf6PGD (NADPH fluorescence); format: biochemical
Description: as §1
(§2) Different compound concentrations were added to one volume of enzyme mix (final concentrations: 50 mM Tris (pH 7.5), 0.005% Tween 20, 1 mg∙mL^−1 BSA, 0.7 nM Ld6PGD/0.7 nM Pf6PGD/0.9 nM Hs6PGD) and incubated for ten minutes. […] To increase the sensitivity of the assay, the increase of NADPH was monitored by measuring the fluorescence of NADPH at excitation 340 nm/emission 460 nm (ex340/em460). […] The reaction rate was calculated by dividing the relative fluorescence units (RFU) by time, and only a linear increase in absorbance/fluorescence was considered. IC50 values were calculated using GraphPad Prism 9.0 software and Microsoft Excel.

[3] = molecular target: T2, Hs6PGD (Homo sapiens, UniProt P52209); assay: Dose-response against recombinant Hs6PGD (NADPH fluorescence); format: biochemical; settings: 25 µM 6PG, 20 µM NADP+, highest concentration 100 µM; read-out: IC50 for recombinant protein Hs6PGD
T2 sequence (P52209 1-483): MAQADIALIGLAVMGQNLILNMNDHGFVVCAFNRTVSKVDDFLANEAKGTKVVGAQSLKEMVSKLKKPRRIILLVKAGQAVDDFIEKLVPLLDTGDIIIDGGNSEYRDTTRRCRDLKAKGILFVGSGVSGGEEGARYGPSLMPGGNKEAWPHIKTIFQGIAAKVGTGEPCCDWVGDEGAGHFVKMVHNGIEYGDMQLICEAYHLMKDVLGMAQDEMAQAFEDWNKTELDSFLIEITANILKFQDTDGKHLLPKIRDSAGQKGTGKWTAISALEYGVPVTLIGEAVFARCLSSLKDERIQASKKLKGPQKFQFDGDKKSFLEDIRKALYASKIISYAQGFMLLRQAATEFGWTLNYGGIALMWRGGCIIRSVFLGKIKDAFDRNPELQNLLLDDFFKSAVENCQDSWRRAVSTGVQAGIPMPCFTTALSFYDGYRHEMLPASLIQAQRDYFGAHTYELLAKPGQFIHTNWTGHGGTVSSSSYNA
Description: as §1, §2

[4] = molecular target: T1, Ld6PGD; assay: Mode-of-inhibition study, substrate titration at constant auranofin concentrations (Michaelis-Menten); format: biochemical; settings: for Vmax, NADP+ titrated: 6PG in saturation; for Vmax, 6PG titrated: NADP+ in saturation
Description: For the mechanistic characterization of auranofin, either NADP^+ (0–200 µM) or 6PG (0–250 µM) was titrated at different constant compound concentrations around the IC50 (0–30 µM), while keeping the second substrate in saturation (6PG: 300 µM, NADP^+: 200 µM). To determine the compound mode of inhibition, the relationship between initial velocity (v0) and substrate concentrations ([S]) at various constant compound concentrations was analyzed by plotting the data as Michaelis–Menten curves using GraphPad Prism; KM values and Vmax were calculated with GraphPad Prism as well.

[5] = molecular target: T1, Ld6PGD; assay: Reversibility of Ld6PGD inhibition (incubation at high concentration, then dilution); format: biochemical
Description: In detail, 14 nM Ld6PGD was incubated with 30 µM auranofin for 10 min at room temperature. […] Afterwards, NADP^+ and 6PG were added to start the reaction, either at substrate saturation (300 µM 6PG, 200 µM NADP^+) or at concentrations close to KM (25 µM 6PG, 20 µM NADP^+). For comparison, controls containing either no inhibitor (100% activity) or inhibitor in the concentration remaining after dilution were prepared. NADPH production was monitored at ex340 nm using the Tecan Infinite M200 plate reader in 96-well plates. Specific activities were calculated from reaction rates. […] Inhibition was considered reversible if the activity of the sample was equal to the controls.

[6] = molecular target: TR from Leishmania infantum (LiTR); parameters: method as in PMID 21833767; settings: read-out: Ki against recombinant TR from Leishmania infantum (LiTR); cited from earlier work
[7] = test system: Leishmania parasites; parameters: method as in PMID 24328400, PMID 32463611, PMID 33139647; settings: trypanosomatid parasites; cited from earlier work
[8] = molecular target: Leishmania donovani 6-phosphogluconate dehydrogenase wild type (Leishmania donovani); assay: SEC; HiLoad 16/60 Superdex 200 in buffer A (500 mM NaCl, 50 mM Tris, pH 7.8); native, with 5 mM DTT, with 2 mM H2O2, with 0.2 mM 6PG, 0.2 mM NADP+ or 0.2 mM NADPH; varying protein concentrations; the dimer peak was the same under all conditions

Compound: CC[P](CC)(CC)=[Au][S][C@@H]1O[C@H](COC(C)=O)[C@@H](OC(C)=O)[C@H](OC(C)=O)[C@H]1OC(C)=O [Auranofin]
- Ki [1]: 3.8 ± 0.4 µM
- IC50 ([1]; IC50 against Ld6PGD with 6PG at saturation, enzyme incubated with auranofin and 6PG at saturation): 40.5 ± 1.9 µM
- IC50 ([1]; IC50 for recombinant protein Ld6PGD, substrates close to KM (25 µM 6PG, 20 µM NADP+), 10 min incubation with enzyme): 8.6 ± 1 µM
- IC50 [2]: 20.1 ± 1.5 µM
- IC50 [3]: > 100 µM

Compound: CC(=O)OC[C@H]1O[C@@H]([S-])[C@H](OC(C)=O)[C@@H](OC(C)=O)[C@@H]1OC(C)=O.CCP(CC)CC.[Au+] [Auranofin]
- Inhibition of Ld6PGD at 50 µM ([1]; 50 µM auranofin): completely inhibited
- IC50 against Ld6PGD with NADP+ at saturation ([1]; enzyme incubated with auranofin and NADP+ at saturation, compared with IC50 at KM): unaffected
- Mode of inhibition against 6PG ([4]; 6PG titrated, NADP+ 200 µM): mixed type of inhibition
- Mode of inhibition against NADP+ ([4]; NADP+ titrated, 6PG 300 µM): non-competitive inhibition
- Vmax, NADP+ titrated ([4]; auranofin 1.875 µM): 35.9 U/mg
- Vmax, 6PG titrated ([4]; auranofin 1.875 µM): 36.43 U/mg
- Vmax, NADP+ titrated ([4]; auranofin 3.75 µM): 34.45 U/mg
- Vmax, 6PG titrated ([4]; auranofin 3.75 µM): 35.23 U/mg
- Vmax, NADP+ titrated ([4]; auranofin 7.5 µM): 34.92 U/mg
- Vmax, 6PG titrated ([4]; auranofin 7.5 µM): 29.59 U/mg
- Vmax, NADP+ titrated ([4]; auranofin 15 µM): 31.07 U/mg
- Vmax, 6PG titrated ([4]; auranofin 15 µM): 21.59 U/mg
- Vmax, NADP+ titrated ([4]; auranofin 30 µM): 23.34 U/mg
- Vmax, 6PG titrated ([4]; auranofin 30 µM): 7.71 U/mg
- Ld6PGD activity of undiluted sample ([5]; 30 µM auranofin (pre-dilution), substrates at KM): completely inhibited
- Reversibility of Ld6PGD inhibition ([5]; 30 µM pre-dilution, diluted to 3 µM, 10 min each): irreversible
- Ki [6]: 0.155 ± 0.035 µM
- Concentrations at which increase in ROS and apoptotic-like cell death were observed [7]: 10 to 50 µM

Compound: [Cl][Au].c1ccc(P(c2ccccc2)c2ccccc2)cc1 [Ph3PAuCl, chloro(triphenylphosphine)gold(I)]
- IC50 ([1]; substrates close to KM (25 µM 6PG, 20 µM NADP+), 10 min incubation with enzyme, read-out: IC50 for recombinant protein Ld6PGD): 2.1 ± 0.3 µM

- stoichiometry N [8]: 2
Compound: Leishmania donovani 6-phosphogluconate dehydrogenase wild type (enzyme)

— article PMC10217883, “Structure of Leishmania donovani 6-Phosphogluconate Dehydrogenase and Inhibition by Phosphine Gold(I) Complexes: A Potential Approach to Leishmaniasis Treatment” (International Journal of Molecular Sciences, 2023)
